Experimental findings from patent publication US4276286A, “Process for decreasing ammonia concentration in domestic animals or fowls” (Kumiai Chemical Industry Co., Ltd., priority 1975, dated 1981) are described below.

The test system of one data set is mice. The experiment in a line: Acute toxicity in mice. Format: in vivo, mouse. The note with it: injection into abdominal cavity; for LD50 in words: mice, compared with multhiomycin. How it is done:
Acute toxins of multhiomycin, thiopeptin and thiostrepton administered to mice, were measured by injection of each drug into the abdominal cavities of the mice.

The test system of the next data set is bacteria. The experiment in a line: In vitro action on bacteria. Format: cell-based.
Another data set concerns ammonia. The experiment in a line: Ammonia concentration in the animal's body, intestine and blood or excrements (general statement). Format: in vivo. The note with it: compared with untreated animals.
The subject of data set [1] is ammonia (NH3-N) in portal blood. The experiment in a line: Ammonia concentration in portal blood of pigs (modified Fujii-Okuda method). Format: in vivo, pig. As to conditions: 10 ppm in diet, after 2 months; for NH3-N in portal blood: control 6.80. How it is done:
(§1) A deproteinizing solution was added to the sample to deproteinize the sample and remove coloration-inhibiting components therefrom and simultaneously deactivate enzymes for preventing formation of ammonia during standing. The supernatant was separated and a coloring solution containing phenol and a nitroprusside salt was added thereto. Then, an alkaline solution was added to the mixture to make it alkaline, and a coloring solution containing sodium hypochlorite was further added to effect oxidation and form indophenol showing a blue color. The absorbance of this color at 630 mμ was measured to determine the ammonia nitrogen concentration. This measurement method is expressed by the following reaction formula: [drawing 1]
(§2) Incidentally, the nitroprusside salt acts as a catalyst in the above reaction.
Young pigs just after weaning were divided into 3 groups, each consisting of 6 pigs. Diets containing 10 ppm of multhiomycin were given to one group, diets containing 10 ppm of thiopeptin as the comparative medicament were given to another group, and a medicament-free diet was given to the remaining one group (control group). After 2 months, with respect to each group, the ammonia concentrations in portal blood were determined according to the modified Fujii-Okuda method.

Data set [2] can be described thus: Acute toxicity (general statement). Format: in vivo. As to conditions: in comparison with other antibiotics.
For data set [3] the following is noted: in vivo.
A further data set can be described thus: Acidity. Format: physicochemical.
For data set [4], the system named is ammonia (NH3-N) in contents of the colon. The experiment in a line: Ammonia concentration in contents of the colon of chickens (modified Fujii-Okuda method). Format: in vivo, chicken. The note with it: after 8 weeks, control 155. As for the experimental part: Chickens just after hatching were divided into 5 groups, each consisting of 10 chickens. Diets containing 2.5 ppm or 5.00 ppm of multhiomycin were given to two groups, respectively, and diets containing 2.5 ppm or 5.00 ppm of thiopeptin were given to other two groups (comparative groups), respectively. A medicament-free diet was given to the remaining one group (control group). After 8 weeks, with respect to each group, the ammonia concentrations in the contents of the colon were determined according to a modification of the method of Fujii and Okuda, described hereinafter.
as §1, §2

For another data set, the system named is ammonia in excrement. The experiment in a line: Ammonia concentration in excrement of chickens (Kitagawa's vacuum gas detector). Format: in vivo, chicken. The source says: The tests were made on commercially available chickens for exclusive use as broilers (kind: Hubbard). 150 Chickens which were just hatched (male: 75, female: 75) were divided into 3 groups, each consisting of 50 chickens. Basal diets (containing no antibiotics, see Tables 6 and 7) were given to one group, and diets containing 2.5 ppm or 10 ppm of multhiomycin were given to the other two groups. The feed was constantly supplied to each group with water for 8 weeks from the hatching. Each group was bred in one windless cage (1.8×5.4×2.7 m, 9.7 m^2 per group), and each cage was kept warm by circulating warm water under the floor until the chickens were two weeks old. Further, the floor were covered with wood chips in a depth of about 3 cm.
About 6 or 8 weeks from the beginning of the test, the ammonia concentration in excrement was measured in each group. The ammonia concentrations in the excrement were measured with Kitagawa's vacuum gas detector and the moisture content therein was measured with the hot-air drying method whereby 2 kg weight of excrement (containing chips) was treated at 100°±2° C. for 24 hours to measure its moisture content.

Data set [5] can be described thus: Remaining activity of antibiotics in excrement of chickens (microbial quantitative method). The note with it: 10 μg/g added to chicken excrement, room temperature. As for the experimental part: (§3) The rise and fall in the activity of the multhiomycin excreted without absorption in the interior of the animal body was compared with the activity of other antibiotics, such as thiopeptin and thiostrepton.
Multhiomycin, thiopeptin and thiostrepton were respectively added to the excrement of chickens bred with the feed containing no antibiotics in a concentration of 10 μg/g. The excrement was preserved under room temperature condition and the remaining potency of each antibiotic in excrement was measured at different time intervals with a microbal quantitative method.

The nature of data set [6]: Behavior of antibiotics in soil (microbial quantitative method). The note with it: 10 μg/g added to soil, room temperature. As for the experimental part:
as §3
To soils (collected in Kikukawa-cho, Ogasa-gun, Shizuoka-ken, Japan) which were confirmed to have no anti-antibiotic activity were respectively added multhiomycin, thiopeptin and thiostrepton, each containing 10 μg/g concentration of each antibiotic. The soils were preserved under room temperature condition, and the remaining potencies in soils of each antibiotic were measured at different time intervals according to the microbal quantitative method.

Bounds are passed on as bounds.

Regarding `C=C(NC(=O)c1csc(-c2nc3c(cc2O)-c2nc(cs2)C(=O)NC(C(C)O)C(=O)NC(=CC)c2nc(cs2)C(=O)NC2CC(O)C(=O)OCc4cccc5[nH]c(c(C)c45)C(=O)SCC(NC(=O)c4csc2n4)c2nc-3cs2)n1)C(N)=O` (stereo not drawn) [Multhiomycin], the “Acute toxicity LD50” value in the data set on mice (female mouse) and with mice (male mouse) was > 4,000 mg/kg throughout. In the data set on mice (mice, 4,000 mg/kg), the Deaths entry is on record as “did not cause a single death”. The Action on bacteria entry with bacteria is listed as “astonishing action on bacteria”. Also, the “Ammonia in excrement of treated animals, in words” value with ammonia was “very small amounts of ammonia”. Moreover, the “NH3-N in portal blood, value in parentheses (difference from control)” value in data set [1] is -3.36 µg/mL. In addition, the “NH3-N in portal blood” value in data set [1] was 3.44 µg/mL. For the same molecule, the “Acute toxicity in words” value in data set [2] is “low degree of acute toxicity”. Further, the “Amount remaining in internal organs or muscles, in words” value in data set [3] is listed as “so little as to be not perceptible in a recognizable amount”. In addition, in data set [3], the Excretion entry is listed as “completely excreted”. Further, the Acidity entry in the data set “Acidity” is “slightly acidic”. For the same molecule, the “NH3-N in contents of colon” value in [4] (2.5 ppm in diet) is listed as 60 μg/g of wet matter; in data set [4] (5.0 ppm in diet) it was 46 μg/g of wet matter. For the same molecule, the “Ammonia concentration in excrement” value with ammonia in excrement (2.5 ppm in diet, 6 weeks of age, control 25.5) was determined as 9.8 ppm; in the data set with ammonia in excrement (2.5 ppm in diet, 8 weeks of age, control 29.7), 11.2 ppm; in the data set with ammonia in excrement (10 ppm in diet, 6 weeks of age, control 25.5) it was 9.0 ppm; with ammonia in excrement (10 ppm in diet, 8 weeks of age, control 29.7) it was 10.0 ppm.
Regarding Thiopeptin, the figures for the “Acute toxicity LD50” value in the data set on mice (female mouse) and in the data set on mice (male mouse) were 660 mg/kg and 780 mg/kg, respectively. The LD50 in words result in the data set with mice is given as “small values of LD50”. Further, in data set [1], the “NH3-N in portal blood, value in parentheses (difference from control)” value is -0.8 µg/mL. Further, in data set [1], the “NH3-N in portal blood” value turned out to be 6.00 µg/mL. Moreover, the “Remaining amount in excrement after 5 days” value in [5] is 52%. For the same molecule, the “Remaining ratio in soil after 60 days” value in data set [6] turned out to be 41%. Besides, the “NH3-N in contents of colon” value is on record as 120 μg/g of wet matter in data set [4] (2.5 ppm in diet) and 100 μg/g of wet matter in [4] (5.0 ppm in diet).
On to Thiostrepton, for which, in the data set on mice (male mouse), the “Acute toxicity LD50” value was found to be 85 mg/kg. Further, in the data set with mice, the LD50 in words result is on record as “small values of LD50”. Further, the “Remaining amount in excrement after 5 days” value in [5] was determined as 43%. Further, the “Remaining ratio in soil after 60 days” value in data set [6] is reported as 44%.
